Numbers after ± are expanded uncertainties.
Key:
[1] = molar enthalpy of vaporization or sublimation; conditions: 381.12 K; Crystal; Static calorimetry
[2] = Molar enthalpy of transition or fusion; conditions: Crystal; DSC
[3] = Crystal
[4] = molar heat capacity at constant pressure; conditions: 101.33 kPa, Crystal, Small sample (50 mg) DSC

CCC(=O)c1ccc(O)cc1 [1-(4-hydroxyphenyl)-1-propanone]
Conditions	Molar enthalpy of transition or fusion [kcal/mol]	molar enthalpy [kcal/mol]
[1]	–	26.87 ± 0.203
[2]	7.56 ± 0.177	–

Conditions	mass density [kg/m3]
[3], 298 K, 101.33 kPa, X-ray diffraction	1273.1 ± 28

Conditions	Normal melting temperature [°C]	molar heat capacity at constant pressure [J/K/mol]
[3], DTA	148.5 ± 0.5	–
[4], 288.66 K	–	188.2 ± 5.2
[4], 289.98 K	–	188.2 ± 5.7
[4], 291.28 K	–	189.2 ± 5.2
[4], 292.55 K	–	189.9 ± 6
[4], 293.82 K	–	190.1 ± 6.6
[4], 295.08 K	–	191.4 ± 6.6
[4], 296.34 K	–	192.1 ± 5.8
[4], 297.6 K	–	192.7 ± 5.2
[4], 298.85 K	–	192.9 ± 5.2
[4], 300.11 K	–	193.6 ± 5.5
[4], 301.36 K	–	194.5 ± 5.8
[4], 302.61 K	–	195.3 ± 5.8
[4], 303.87 K	–	196.9 ± 5.8
[4], 305.13 K	–	197.5 ± 5.8
[4], 306.38 K	–	198.3 ± 5
[4], 307.64 K	–	198.5 ± 5.3
[4], 308.89 K	–	199.3 ± 5
[4], 310.14 K	–	199.8 ± 5.8
[4], 311.39 K	–	201 ± 5.8
[4], 312.64 K	–	201.7 ± 5.6
[4], 313.9 K	–	202.7 ± 5.8
[4], 315.15 K	–	203.5 ± 5.3
[4], 316.4 K	–	203.9 ± 6.1
[4], 317.65 K	–	204.9 ± 6.1
[4], 318.9 K	–	204.9 ± 6.1
[4], 320.15 K	–	206.1 ± 5.9
[4], 321.41 K	–	206.9 ± 5.9
[4], 322.66 K	–	207.6 ± 5.6
[4], 323.91 K	–	208.3 ± 5.9
[4], 325.16 K	–	209.1 ± 6.2
[4], 326.41 K	–	209.8 ± 5.6
[4], 327.66 K	–	210.5 ± 5.4
[4], 328.91 K	–	211.5 ± 5.6
[4], 330.16 K	–	212 ± 5.9
[4], 331.41 K	–	212.6 ± 5.9
[4], 332.66 K	–	213.6 ± 5.6
[4], 333.91 K	–	214.1 ± 5.4
[4], 335.16 K	–	215 ± 5.4
[4], 336.41 K	–	216.1 ± 5.9
[4], 337.66 K	–	216.6 ± 6.5
[4], 338.91 K	–	217.2 ± 6.2
[4], 340.16 K	–	217.3 ± 5.7
[4], 341.41 K	–	218.3 ± 5.4
[4], 342.66 K	–	219.2 ± 5.7
[4], 343.91 K	–	220.2 ± 6.2
[4], 345.16 K	–	220.7 ± 6
[4], 346.41 K	–	222 ± 5.7
[4], 347.66 K	–	222.2 ± 5.7
[4], 348.91 K	–	223.1 ± 5.7
[4], 350.15 K	–	223.8 ± 6.3
[4], 351.4 K	–	225 ± 6.3
[4], 352.65 K	–	225.9 ± 6.3
[4], 353.9 K	–	226.5 ± 6.6
[4], 355.15 K	–	226.9 ± 6.3
[4], 356.4 K	–	227.5 ± 5.2
[4], 357.65 K	–	228.2 ± 6
[4], 358.9 K	–	228.9 ± 5.8
[4], 360.15 K	–	229.6 ± 6.6
[4], 361.4 K	–	230.9 ± 6.9
[4], 362.65 K	–	231.4 ± 6.3
[4], 363.9 K	–	232.2 ± 6.9
[4], 365.15 K	–	232.7 ± 6.9
[4], 366.39 K	–	233.5 ± 7.5
[4], 367.65 K	–	235.1 ± 6.9
[4], 368.9 K	–	235.7 ± 6.9
[4], 370.15 K	–	236.6 ± 6.6
[4], 371.4 K	–	237.2 ± 6.6
[4], 372.65 K	–	237.9 ± 7.2
[4], 373.9 K	–	238.7 ± 7.5
[4], 375.15 K	–	239.3 ± 7.5
[4], 376.4 K	–	240.8 ± 7.2
[4], 377.64 K	–	241.3 ± 7.8
[4], 378.89 K	–	242.4 ± 8.1
[4], 380.14 K	–	243.1 ± 8.4
[4], 381.39 K	–	243.7 ± 8.4
[4], 382.64 K	–	244.3 ± 9.6
[4], 383.89 K	–	245.9 ± 9.3

Reference: the NIST ThermoML archive (doi:10.1016/j.jct.2016.09.026)
